This assay concerns the target T1, PfnPrx (His6-nPrx1-164) (Plasmodium falciparum, UniProt Q8IJD0).
T1 sequence (Q8IJD0 1-164): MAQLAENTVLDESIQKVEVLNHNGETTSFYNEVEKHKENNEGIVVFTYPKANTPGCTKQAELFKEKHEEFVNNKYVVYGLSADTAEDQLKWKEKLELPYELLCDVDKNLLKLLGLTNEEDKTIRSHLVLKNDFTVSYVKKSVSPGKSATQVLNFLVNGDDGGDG
As to the kind of experiment: NADPH oxidation at […] nm, coupled to glutathione reductase/GSH/PfGrx1. The assay is classed as biochemical. To be noted: read-out: apparent Km; 10 μM PfGrx1, 1 mM GSH, 200 μM NADPH, 100 mM HEPES pH 7.6, 1 mM EDTA, 25 °C.

For the compound `CC(C)(OO)c1ccccc1` [cumene hydroperoxide], the Km is around 30 µM.

A word on the Km: it is the concentration of substrate that gives half-maximal velocity.

The values above are taken from PMC3064226 (The Journal of Biological Chemistry, 2011).
